Test results taken from patent US7807418B2, “Method for producing hybrid polyketide synthases” (Biotica Technology Limited, priority 1996, dated 2010).

System: Bacillus subtilis ATCC 6633
Assay: Determination of antibiotic activity, agar well diffusion, zones of growth inhibition
Format: cell-based
Conditions: nutrient 1.5% agar seeded with B. subtilis; 20 microlitres of test compound as a solution in ethanol (5-10 mg/L) per well; incubated overnight
Protocol: A 3 ml overnight culture of Bacillus subtilis ATCC 6633 was grown at 30% C in nutrient broth (Difco). 200 ml of nutrient 1.5% agar (difco) at 46% C was seeded with 1 ml of the B.subtilis culture and poured immediately into petri dishes (25 ml/plate). After drying the plates in a laminar flow hood for 15 minutes, wells ([…] in diameter) were cut using a cork borer and 20 microlitres of the test compound as a solution in ethanol (5-10 mg/L) was added to each well. The plates were kept at 4% C for 5-7 hours to allow the compound to diffuse, and the plates were then incubated overnight at 30% C.

SMILES	zones of growth inhibition
CCC(C)C1OC(=O)C(C)C(OC2CC(C)(OC)C(O)C(C)O2)C(C)C(OC2OC(C)CC(N(C)C)C2O)C(C)(O)CC(C)C(=O)C(C)C(O)C1(C)O (centres unmarked) [(s-pent)-erythromycin A]	Clear zones of growth inhibition
COC1(C)CC(OC2C(C)C(=O)OC(C(C)C)C(C)(O)C(O)C(C)C(=O)C(C)CC(C)(O)C(OC3OC(C)CC(N(C)C)C3O)C2C)OC(C)C1O (centres unmarked) [(i-but)-erythromycin A]	Clear zones of growth inhibition
